Experimental data published in ChEMBL document CHEMBL1133244, “Solid-phase synthesis of an arylsulfone hydroxamate library” (Bioorg Med Chem Lett, 2000).
Active and inactive are the calls of the source. The rule behind the calls is not given here.

What was measured:
[1] = In vitro for the inhibition of TNF alpha release by human peripheral blood monocytes (PBMs); assay type: functional
[2] = target: T1, Stromelysin-1 (Homo sapiens, UniProt P08254); test: Inhibitory activity against recombinant matrix metalloprotease-3
[3] = target: T2, 72 kDa type IV collagenase (Homo sapiens, UniProt P08253); test: Inhibitory activity against recombinant matrix metalloprotease-2
[4] = target: T3, Interstitial collagenase (Homo sapiens, UniProt P03956); test: Inhibitory activity against recombinant matrix metalloprotease-1
T3 sequence (P03956 whole entry): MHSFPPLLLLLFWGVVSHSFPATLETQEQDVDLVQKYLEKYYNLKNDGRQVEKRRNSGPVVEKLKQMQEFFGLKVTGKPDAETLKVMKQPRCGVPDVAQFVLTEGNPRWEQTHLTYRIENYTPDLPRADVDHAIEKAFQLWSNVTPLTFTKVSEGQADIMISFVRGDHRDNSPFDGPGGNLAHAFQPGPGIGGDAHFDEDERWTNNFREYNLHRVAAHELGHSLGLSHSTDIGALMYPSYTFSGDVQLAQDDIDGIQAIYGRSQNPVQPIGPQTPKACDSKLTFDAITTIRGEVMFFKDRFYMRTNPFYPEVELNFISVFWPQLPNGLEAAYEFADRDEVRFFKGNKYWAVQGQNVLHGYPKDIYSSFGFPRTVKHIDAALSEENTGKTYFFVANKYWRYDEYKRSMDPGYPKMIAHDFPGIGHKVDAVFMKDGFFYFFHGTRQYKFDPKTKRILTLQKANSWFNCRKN

[5] = target: Phosphodiesterase 4 (Cavia porcellus); test: Phosphodiesterase 4 inhibitory activity measured against guinea pig macrophage homogenate
[6] = target: T1, Stromelysin-1; test: In vitro inhibition of human recombinant Matrix metalloprotease-3.
[7] = target: T3, Interstitial collagenase; test: In vitro inhibition of human recombinant Matrix metalloprotease-1.
[8] = target: Disintegrin and metalloproteinase domain-containing protein 17 (Homo sapiens) (UniProt P78536); test: Inhibitory activity against TACE
[9] = target: T2, 72 kDa type IV collagenase
Description: In vitro inhibition of human recombinant Matrix metalloprotease-2.

T2 sequence (P08253 whole entry): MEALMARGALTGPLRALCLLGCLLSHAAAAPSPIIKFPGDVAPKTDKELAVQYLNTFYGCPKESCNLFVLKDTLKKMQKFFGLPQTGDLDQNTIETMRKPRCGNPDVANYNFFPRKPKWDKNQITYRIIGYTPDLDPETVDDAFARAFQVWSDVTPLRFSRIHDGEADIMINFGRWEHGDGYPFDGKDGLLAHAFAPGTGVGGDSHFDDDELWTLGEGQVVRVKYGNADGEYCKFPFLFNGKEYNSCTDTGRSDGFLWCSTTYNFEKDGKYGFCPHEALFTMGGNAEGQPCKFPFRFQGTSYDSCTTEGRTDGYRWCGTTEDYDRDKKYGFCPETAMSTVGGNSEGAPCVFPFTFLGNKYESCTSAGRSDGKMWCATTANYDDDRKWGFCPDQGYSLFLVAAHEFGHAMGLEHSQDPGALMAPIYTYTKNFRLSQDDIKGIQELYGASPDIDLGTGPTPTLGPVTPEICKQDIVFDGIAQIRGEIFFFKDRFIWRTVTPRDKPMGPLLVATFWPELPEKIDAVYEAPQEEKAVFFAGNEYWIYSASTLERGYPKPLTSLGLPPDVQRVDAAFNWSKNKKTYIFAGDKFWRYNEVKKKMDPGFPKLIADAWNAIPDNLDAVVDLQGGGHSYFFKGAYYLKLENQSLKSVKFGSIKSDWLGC
Sequence of Disintegrin and metalloproteinase domain-containing protein 17 (Homo sapiens) (P78536 whole entry, the tested form may be a part): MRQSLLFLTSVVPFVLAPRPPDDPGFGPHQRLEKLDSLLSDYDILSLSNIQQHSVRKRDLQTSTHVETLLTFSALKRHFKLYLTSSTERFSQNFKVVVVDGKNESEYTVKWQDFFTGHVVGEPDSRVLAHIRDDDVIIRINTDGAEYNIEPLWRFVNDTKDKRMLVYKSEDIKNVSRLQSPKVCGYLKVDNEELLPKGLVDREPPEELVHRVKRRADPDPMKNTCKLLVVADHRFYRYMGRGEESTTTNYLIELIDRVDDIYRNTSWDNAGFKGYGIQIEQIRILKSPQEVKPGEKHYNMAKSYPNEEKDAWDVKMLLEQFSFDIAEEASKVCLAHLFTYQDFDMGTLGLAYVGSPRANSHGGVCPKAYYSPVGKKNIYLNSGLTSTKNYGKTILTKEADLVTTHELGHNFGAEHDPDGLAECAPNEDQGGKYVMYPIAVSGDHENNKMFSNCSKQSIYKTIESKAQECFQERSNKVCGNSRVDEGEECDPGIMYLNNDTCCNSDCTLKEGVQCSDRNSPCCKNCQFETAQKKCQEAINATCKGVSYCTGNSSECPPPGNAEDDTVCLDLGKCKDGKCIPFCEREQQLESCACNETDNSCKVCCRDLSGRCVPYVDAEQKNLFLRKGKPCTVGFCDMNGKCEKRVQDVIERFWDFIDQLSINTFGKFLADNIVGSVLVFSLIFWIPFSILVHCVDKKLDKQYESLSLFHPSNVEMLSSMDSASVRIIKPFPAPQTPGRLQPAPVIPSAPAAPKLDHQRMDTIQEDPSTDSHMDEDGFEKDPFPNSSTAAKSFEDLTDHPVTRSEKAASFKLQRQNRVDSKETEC
T1 sequence (P08254 whole entry): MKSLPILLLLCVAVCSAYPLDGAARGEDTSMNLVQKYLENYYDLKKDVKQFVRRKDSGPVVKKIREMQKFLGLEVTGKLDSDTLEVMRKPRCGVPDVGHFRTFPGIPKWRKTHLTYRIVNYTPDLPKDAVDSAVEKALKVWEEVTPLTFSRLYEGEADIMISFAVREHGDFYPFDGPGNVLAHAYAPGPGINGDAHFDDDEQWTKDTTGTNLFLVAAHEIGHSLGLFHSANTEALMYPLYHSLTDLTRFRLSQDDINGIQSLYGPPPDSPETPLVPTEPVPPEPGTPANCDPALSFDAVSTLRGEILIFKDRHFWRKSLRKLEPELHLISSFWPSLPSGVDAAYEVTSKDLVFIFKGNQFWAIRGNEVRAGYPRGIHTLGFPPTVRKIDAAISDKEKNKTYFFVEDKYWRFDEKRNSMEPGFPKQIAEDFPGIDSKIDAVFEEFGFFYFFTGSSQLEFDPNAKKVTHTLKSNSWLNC

| Compound | IC50 [1] | IC50 [2] | IC50 [3] | IC50 [4] | IC50 [5] | Ki [6] | Ki [7] | Activity [8] | Ki [9] |
| --- | --- | --- | --- | --- | --- | --- | --- | --- | --- |
| COc1ccc(C(=O)Nc2c(Cl)cncc2Cl)cc1OC1CCCC1 | 0.005 µM | – | – | – | – | – | – | – | – |
| COc1ccc(S(=O)(=O)C(CCc2ccccc2)CC(=O)NO)cc1 (configuration not stated) | > 10 µM | – | – | – | – | 0.35 µM | 2.16 µM | inactive | 0.043 µM |
| COc1ccc(S(=O)(=O)C(COCc2ccccc2)CC(=O)NO)cc1 (configuration not stated) | > 10 µM | – | – | – | – | 1.43 µM | > 10 µM | inactive | 0.038 µM |
| COc1ccc(S(=O)(=O)C(CC(=O)NO)C(C)c2ccccc2)cc1 (configuration not stated) | > 10 µM | – | – | – | – | 0.3 µM | 1.71 µM | inactive | 0.008 µM |
| COc1ccc(S(=O)(=O)C(CC(=O)NO)C2CCCCC2)cc1 (configuration not stated) | > 10 µM | – | – | – | – | 0.086 µM | 1.71 µM | inactive | 0.008 µM |
| COc1ccc(S(=O)(=O)C(CCCc2ccccc2)CC(=O)NO)cc1 (configuration not stated) | 5 µM | – | – | – | – | 1.39 µM | 2.58 µM | inactive | 0.044 µM |
| COc1ccc(S(=O)(=O)C(CCCCc2ccccc2)CC(=O)NO)cc1 (configuration not stated) | > 10 µM | – | – | – | – | – | – | inactive | – |
| COc1ccc(S(=O)(=O)C(CCCc2ccccc2)CC(=O)NO)cc1OC (configuration not stated) | 0.009 µM | > 10 µM | > 10 µM | > 10 µM | 0.014 µM | – | – | inactive | – |
| COc1ccc(S(=O)(=O)C(CC(=O)NO)c2ccccc2)cc1OC (configuration not stated) | 0.45 µM | > 10 µM | > 10 µM | > 10 µM | 0.58 µM | – | – | inactive | – |
| CCCCC(CC)C(CC(=O)NO)S(=O)(=O)c1ccc(OC)cc1 (configuration not stated) | > 10 µM | – | – | – | – | 0.184 µM | 0.357 µM | inactive | 0.004 µM |
| COc1ccc(S(=O)(=O)C(CC(=O)NO)CC(C)C)cc1OC1CCCC1 (configuration not stated) | – | > 10 µM | > 10 µM | > 10 µM | 0.102 µM | – | – | – | – |
| COc1ccc(S(=O)(=O)C(CC(=O)NO)CC(C)C)cc1OC (configuration not stated) | – | > 10 µM | > 10 µM | > 10 µM | > 10 µM | – | – | – | – |
| CCCCCCC(CC(=O)NO)S(=O)(=O)c1ccc(OC)cc1 (configuration not stated) | 1.4 µM | – | – | – | – | 0.734 µM | 9.59 µM | inactive | 0.031 µM |
| COc1ccc(S(=O)(=O)C(CCC2CCCCC2)CC(=O)NO)cc1 (configuration not stated) | > 10 µM | – | – | – | – | 0.59 µM | 0.4 µM | inactive | 0.036 µM |
| COc1ccc(S(=O)(=O)C(CCC(=O)N2CCCc3ccccc32)CC(=O)NO)cc1OC1CCCC1 (configuration not stated) | – | > 10 µM | > 10 µM | > 10 µM | 0.016 µM | – | – | – | – |
| COc1ccc(S(=O)(=O)C(CC(=O)NO)c2ccccc2)cc1 (configuration not stated) | > 10 µM | – | – | – | – | 3.3 µM | > 10 µM | inactive | – |
| CCCC(CC(=O)NO)S(=O)(=O)c1ccc(OC)c(OC)c1 (configuration not stated) | – | > 10 µM | > 10 µM | > 10 µM | 5.25 µM | – | – | – | – |

Second part, the compound after the results:

| IC50 [1] | IC50 [2] | IC50 [3] | IC50 [4] | IC50 [5] | Ki [6] | Ki [7] | Activity [8] | Ki [9] | Compound |
| --- | --- | --- | --- | --- | --- | --- | --- | --- | --- |
| – | > 10 µM | > 10 µM | > 10 µM | 0.049 µM | – | – | – | – | COc1ccc(Oc2cccc(C(CC(=O)NO)S(=O)(=O)c3ccc(OC)c(OC4CCCC4)c3)c2)cc1 (configuration not stated) |
| – | > 10 µM | > 10 µM | > 10 µM | 0.036 µM | – | – | – | – | COc1ccc(S(=O)(=O)C(CCCC(=O)N2CCCc3ccccc32)CC(=O)NO)cc1OC1CCCC1 (configuration not stated) |
| – | > 10 µM | > 10 µM | > 10 µM | 0.0095 µM | – | – | – | – | CCCCCCC(CC(=O)NO)S(=O)(=O)c1ccc(OC)c(OC2CCCC2)c1 (configuration not stated) |
| – | > 10 µM | > 10 µM | > 10 µM | 0.064 µM | – | – | – | – | COc1ccc(S(=O)(=O)C(CCc2ccc(OCc3ccccc3)cc2)CC(=O)NO)cc1OC (configuration not stated) |
| – | > 10 µM | > 10 µM | > 10 µM | 0.974 µM | – | – | – | – | COc1ccc(S(=O)(=O)C(CC(=O)NO)CN(C)C(=O)c2ccccc2)cc1OC1CCCC1 (configuration not stated) |
| – | > 10 µM | > 10 µM | > 10 µM | 0.032 µM | – | – | – | – | COc1ccc(S(=O)(=O)C(CCc2ccc(Oc3ccccc3)cc2)CC(=O)NO)cc1OC1CCCC1 (configuration not stated) |
| – | > 10 µM | > 10 µM | > 10 µM | 0.295 µM | – | – | – | – | COc1ccc(S(=O)(=O)C(CCCC(=O)N2CCCc3ccccc32)CC(=O)NO)cc1OC (configuration not stated) |
| – | > 10 µM | > 10 µM | > 10 µM | 0.26 µM | – | – | – | – | COc1ccc(S(=O)(=O)C(CC(=O)NO)c2cccc(Oc3ccccc3)c2)cc1OC1CCCC1 (configuration not stated) |
| – | > 10 µM | > 10 µM | > 10 µM | 0.032 µM | – | – | – | – | COc1ccc(S(=O)(=O)C(CCCN2C(=O)c3ccccc3C2=O)CC(=O)NO)cc1OC1CCCC1 (configuration not stated) |
| – | > 10 µM | > 10 µM | > 10 µM | 1.5 µM | – | – | – | – | COc1ccc(S(=O)(=O)C(CC(=O)NO)c2ccccc2OCc2ccccc2)cc1OC1CCCC1 (configuration not stated) |
| – | > 10 µM | > 10 µM | > 10 µM | 0.564 µM | – | – | – | – | COc1ccc(S(=O)(=O)C(CCC(=O)N2CCCc3ccccc32)CC(=O)NO)cc1OC (configuration not stated) |
| – | > 10 µM | > 10 µM | > 10 µM | 3.03 µM | – | – | – | – | COc1ccc(S(=O)(=O)C(CCc2ccccc2)CC(=O)NO)cc1OC (configuration not stated) |
| – | > 10 µM | > 10 µM | > 10 µM | 0.14 µM | – | – | – | – | COc1ccc(S(=O)(=O)C(CCOC(=O)N(C)c2ccccc2)CC(=O)NO)cc1OC1CCCC1 (configuration not stated) |
| – | > 10 µM | > 10 µM | > 10 µM | 0.089 µM | – | – | – | – | COc1ccc(S(=O)(=O)C(CC(=O)NO)c2cccc(OCc3ccccc3)c2)cc1OC1CCCC1 (configuration not stated) |
| – | > 10 µM | > 10 µM | > 10 µM | 0.46 µM | – | – | – | – | COc1ccc(S(=O)(=O)C(CCN(C)C(=O)OCc2ccccc2)CC(=O)NO)cc1OC1CCCC1 (configuration not stated) |
| – | > 10 µM | > 10 µM | > 10 µM | 0.055 µM | – | – | – | – | CCCC(CC(=O)NO)S(=O)(=O)c1ccc(OC)c(OC2CCCC2)c1 (configuration not stated) |
| – | > 10 µM | > 10 µM | > 10 µM | 0.118 µM | – | – | – | – | COc1ccc(S(=O)(=O)C(CCCC(=O)N(C)c2ccccc2)CC(=O)NO)cc1OC1CCCC1 (configuration not stated) |
| – | > 10 µM | > 10 µM | > 10 µM | 1.04 µM | – | – | – | – | COc1ccc(S(=O)(=O)C(CCN(C)C(=O)c2ccccc2)CC(=O)NO)cc1OC1CCCC1 (configuration not stated) |
| – | > 10 µM | > 10 µM | > 10 µM | 0.0064 µM | – | – | – | – | COc1ccc(S(=O)(=O)C(CCCCc2ccc3c(c2)OCO3)CC(=O)NO)cc1OC (configuration not stated) |
| – | > 10 µM | > 10 µM | > 10 µM | 0.031 µM | – | – | – | – | COc1ccc(S(=O)(=O)C(CCc2ccccc2)CC(=O)NO)cc1OC1CCCC1 (configuration not stated) |
| – | > 10 µM | > 10 µM | > 10 µM | 0.05 µM | – | – | – | – | COc1ccc(S(=O)(=O)C(CCC(=O)N(C)c2ccccc2)CC(=O)NO)cc1OC1CCCC1 (configuration not stated) |
| – | > 10 µM | > 10 µM | > 10 µM | 0.021 µM | – | – | – | – | COc1ccc(S(=O)(=O)C(CC(=O)NO)c2ccc(OCc3ccccc3)cc2)cc1OC1CCCC1 (configuration not stated) |
| – | > 10 µM | > 10 µM | > 10 µM | 0.063 µM | – | – | – | – | COc1ccc(S(=O)(=O)C(CCc2ccc(OCc3ccccc3)cc2)CC(=O)NO)cc1OC1CCCC1 (configuration not stated) |
